The values below come from US20240342168A1, “SMALL MOLECULE INHIBITORS FOR ANTI-CANCER COMBINATION THERAPY” (UNIVERSITY OF CAPE TOWN, priority 2021, published 2024).

In one experiment the test system is p53. As to conditions: CRM1 inhibition, other cancers, literature; cited from earlier work.
The subject of another experiment is CaSki. Nature of the experiment: MTT cell viability / cisplatin IC50 determination. The experiment is classed as cell-based. As to conditions: 48-h treatment, no INI-43 pre-treatment. The protocol: (§1) HeLa, SiHa, CaSki and C33A cell lines were purchased from the American Type Culture Collection (ATCC) and maintained in Dulbecco's Modified Eagle's Medium (DMEM, Gibco, Life Technologies) containing 10% Fetal Bovine Serum (Gibco, Life Technologies), supplemented with 100 U/mL penicillin and 100 μg/mL streptomycin. Cells were cultured at 37° C. in a humidified chamber with 5% CO2. All cell lines were authenticated by DNA profiling using the Cell ID System (Promega, Madison, WI, USA).
(§2) Cells were plated in 96-well plates and subjected to single or CT (2 h INI-43 pre-treatment followed by cisplatin treatment, without removing IN1-43 from the media) for 48 h. Following treatment, MTT (Sigma) was added and 4 h later crystals solubilized using 10% SLS in 0.01 M HCl. Absorbencies were measured at 595 nm and IC50 values determined via plotting [Fa/(1-Fa)] in log scale against log cisplatin concentration, where:
(§3) The half inhibitory concentration was calculated using the formula IC50=10^x-intercept

For another experiment, the system named is C33A. Nature of the experiment: MTT cell viability / cisplatin IC50 determination. The experiment is classed as cell-based. As to conditions: 48-h treatment, no INI-43 pre-treatment. The protocol: as §1, §2, §3
The test system of another experiment is HeLa. Nature of the experiment: MTT cell viability / cisplatin IC50 determination. Format: cell-based. The protocol:
as §1, §2, §3

The subject of another experiment is SiHa. Nature of the experiment: MTT cell viability / cisplatin IC50 determination. The experiment is classed as cell-based. The protocol:
as §1, §2, §3

Experiment [1] deals with NFκB-p50 and NFκB-p65 in SiHa cells. Nature of the experiment: Immunofluorescence of NFκB nuclear localization. Format: cell-based. The protocol: SiHa cells were plated on glass coverslips and treated for 24 h before fixation with 4% paraformaldehyde. Cells were permeabilised using 0.5% Triton-X-100/PBS and blocked using 1% BSA/PBST with 0.3 M Glycine. Primary antibody incubations were performed in 1% BSA/PBST, followed by secondary antibody incubation (Cy3 conjugated goat anti-rabbit, Jackson ImmunoResearch). Cell nuclei were counterstained with 0.5 μg/mL DAPI, and images captured using the Zeiss inverted fluorescence microscope under 100× oil immersion.

Experiment [2] has as its system p53 reporter activity in SiHa cells. Nature of the experiment: p53-luciferase reporter assay. As to conditions: single cisplatin treatment. Format: cell-based. The protocol: (§4) SiHa cells were transfected with 100 ng p65-luciferase reporter construct (containing five copies of the p65-binding site, Promega) or 200 ng p53-luciferase reporter construct (containing thirteen wildtype p53 binding sites, Addgene plasmid #16442, Addgene Plasmid Repository (el-Deiry W S, Tokino T, Velculescu V E, Levy D B, Parsons R, Trent J M, et al. WAF1, a potential mediator of p53 tumor suppression. Cell. 1993; 75(4):817-25) and 10 ng pRL-TK (encoding Renilla luciferase, Promega), using Genecellin transfection reagent (Celtic Molecular Diagnostics). The following day cells were treated with 5 μM INI-43 for 2 h, followed by 30 μM cisplatin for 24 h, and luciferase activity assayed using the Dual-Luciferase Report assay system (Promega), according to the manufacturer's instructions. Luciferase readings were measured using the Veritas™ microplate luminometer (Promega) and normalised to Renilla luciferase from the same extract.
In general terms: Reporter assays use an easily measured gene product as a stand-in for the process of interest.

The subject of experiment [3] is cyclin D1, c-Myc and XIAP. Nature of the experiment: Western blot of NFκB targets. Format: cell-based. The conditions noted are these: single cisplatin treatment. The protocol:
(§5) For protein extraction, cells were washed with PBS and lysed using RIPA buffer (50 mM Tris-CI, pH 7.4, 150 mM NaCl, 1% (w/v) sodium deoxycholate, 0.1% (v/v) SDS, 1% (v/v) Triton X-100, 2 mM EGTA, 2 mM EDTA, 50 mM NaF, 5 mM Na2P2O7, 1× complete protease inhibitor cocktail (Roche) and 0.1 M Sodium Orthovanadate). For PARP cleavage analysis, dead cells were collected by centrifugation and combined with live cell lysates. Lysates were sonicated, centrifuged, and the supernatant quantified using the BCA Protein Assay Kit (Pierce, Thermo Scientific) according to the manufacturer's instructions. Proteins were subjected to Western blot analysis using the following antibodies: rabbit anti-Kpnβ1 (H-300, sc-11,367, Santa Cruz), rabbit anti-β-tubulin (H-235, sc-9104, Santa Cruz), rabbit anti-PARP1/2 antibody (H-250, sc-7150, Santa Cruz), mouse anti-GAPDH (0411, sc-47,724, Santa Cruz), rabbit anti-p21 (H-164, sc-756, Santa Cruz), rabbit anti-Mcl-1 (H-260, sc-20,679, Santa Cruz), mouse anti-cyclin D1 (HD11, sc-246, Santa Cruz), rabbit anti-c-Myc (N-262, sc-764, Santa Cruz), mouse anti-p53 (DO-7, M7001, DakoCytomation), mouse anti-XIAP (610,763, BD Biosciences), and rabbit anti-phospho-Histone H2AX (γH2AX, Ser139, 20E3, #9718, Cell Signal).
Background: Immunoblotting shows a protein as a band on a membrane.

Experiment [4] deals with NFκB-p50 and NFκB-p65 in SiHa cells. Nature of the experiment: Nuclear/cytoplasmic fractionation and Western blot. Format: cell-based. The conditions noted are these: cisplatin treatment. The protocol: For protein extraction, cells were washed with PBS and lysed using RIPA buffer (50 mM Tris-CI, pH 7.4, 150 mM NaCl, 1% (w/v) sodium deoxycholate, 0.1% (v/v) SDS, 1% (v/v) Triton X-100, 2 mM EGTA, 2 mM EDTA, 50 mM NaF, 5 mM Na2P2O7, 1× complete protease inhibitor cocktail (Roche) and 0.1 M Sodium Orthovanadate). For PARP cleavage analysis, dead cells were collected by centrifugation and combined with live cell lysates. Lysates were sonicated, centrifuged, and the supernatant quantified using the BCA Protein Assay Kit (Pierce, Thermo Scientific) according to the manufacturer's instructions. […]
For nuclear/cytoplasmic protein extraction, cells were collected by trypsinization. […] The fractions were quantified using the BCA Protein Assay Kit (Pierce, Thermo Scientific) according to the manufacturer's instructions, followed by western blot analysis.

Experiment [5] deals with p65 reporter activity in SiHa cells. Nature of the experiment: p65-luciferase reporter assay. Format: cell-based. As to conditions: 30 μM single cisplatin treatment. The protocol: as §4
The subject of experiment [6] is p53, p21 and Mcl-1 in SiHa cells. Nature of the experiment: Western blot of p53 and p53 targets. Format: cell-based. The protocol:
as §5

Where [7] appears, read: 48-h treatment, no INI-43 pre-treatment.
Setting [8] is: Kpnβ1 knock-down (si-Kpnβ1) cells.
The mark [9] stands for this setting: control siRNA (si-ctrl) transfected cells.
The mark [10] stands for this setting: single cisplatin treatment at 30 μM and 60 μM.

Regarding `COc1cc(-c2ncn(/C=C\C(=O)OC(C)C)n2)cc(C(F)(F)F)c1` [KPT-185], in the experiment on p53, the “effect on p53 stability” value is “stabilize p53”.

One may read the IC50 as the concentration that gives 50% inhibition. `N.N.[Cl][Pt][Cl]` [cisplatin, reference compound]: the IC50 in the experiment with CaSki was determined as 18.1 µM; in the experiment with C33A, 12.8 µM; in the experiment on HeLa (setting [7]) it was 18 µM; with HeLa (setting [8]), 9.7 µM; in the experiment on HeLa (setting [9]) it was 24.4 µM; in the experiment with SiHa (setting [7]), 30.8 µM. Further, the IC50 with SiHa (setting [8]) turned out to be 19.3 µM; in the experiment with SiHa (setting [9]) it was 30.5 µM. Further, the “nuclear fluorescence relative to cytoplasmic fluorescence (Fc (Nu/Cy))” value in experiment [1] (single cisplatin treatment) is recorded as “significant increase”. The “nuclear localization of NFκB-p50 and NFκB-p65” value in [1] (single cisplatin treatment (30 μM), 24 h) is on record as “stimulated nuclear localization”. Moreover, in experiment [2], the p53 reporter activity result is given as “significantly reduced”. The “levels of cyclin D1 and c-Myc” value in experiment [3] was “elevated levels”. Besides, in experiment [4], the “levels of NFκB-p50 and NFκB-p65 in the nucleus” value is reported as “increased levels”. For the same compound, in experiment [5], the p65 reporter activity result was “induced”. Moreover, in [6] (SiHa, single cisplatin treatment), the p53 protein levels entry is listed as “increased”. In addition, the Mcl-1 levels result in experiment [6] (setting [10]) is recorded as “decreased”. In addition, the p21 levels entry in [6] (setting [10]) was “decreased”.

For `CCC(=C/[C@H](C)C/C=C/C(C)=C/[C@@H](C)C(=O)[C@@H](C)[C@H](O)[C@@H](C)C/C(C)=C/C(=O)O)/C=C/[C@@H]1OC(=O)C=C[C@@H]1C` [leptomycin B], in the experiment on p53, the “effect on p53 stability” value is recorded as “stabilize p53”.
